Results on 14 compounds are retold here after US11072632B2, “Inhibitors of 17β-HSD1, 17β-HSD3 and 17β-HSD10” (UNIVERSITÉ LAVAL, priority 2011, dated 2021).

Structures are written as SMILES. Read-outs that look alike come from different tables or passages of the source.

Assay [1] has as its system ovariectomized (OVX) mice. Kind of assay: In vivo estrogenic activity (uterotrophic assay) in OVX mice. On the set-up: species or system mouse. Conditions: for increase in uterine weight vs. control group: 100 μg/kg s.c. BID, 7 days. As to the method: The mice were fed rodent chow and tap water ad libitum. The animals were ovariectomized (OVX) under isoflurane-anaesthesia via bilateral flank incisions and randomly assigned to groups (5 animals by group). Mice in the OVX control group received the vehicle alone (8% ethanol-0.4% methylcellulose) during the 7-day period. The possible estrogenic activity of tested compounds was evaluated after their administration by subcutaneous (s.c.) injection [1, 10 and 100 μg/kg, s.c., twice daily (BID)] as suspension in 8% ethanol-0.4% methylcellulose to OVX female mice for 7 days. On day 8, the mice were sacrificed by cervical dislocation. The uteri and vagina were rapidly removed, freed from fat and connective tissue and weighed. Results are the means±SEM of 5 mice per group.

Assay [2] has as its system androgen-sensitive (AR+) Shionogi cells. Briefly: Proliferative (androgenic) activity on androgen-sensitive Shionogi cells. The class given is cell-based. Conditions: basal (control) 100%. As to the method: The proliferative (androgenic) activity was determined using androgen-sensitive Shionogi cells following a known literature procedure.^54 Inhibitors and reference compounds were tested at two concentrations (0.1 and 1.0 μM). The androgenicity was reported as % cell proliferation (versus the control). The basal cell proliferation (control) was fixed at 100%.

The next assay deals with MCF-7 cells. Briefly: Estrogenic activity in MCF-7 cells. On Estrogenicity (0.1 μM): key: — = no; + = weak; ++ = medium to strong. On Estrogenicity (1.0 μM): key: — = no; + = weak; ++ = medium to strong. The class given is cell-based, human. As to conditions: 7 days; for Estrogenicity (1.0 μM) / Estrogenicity (0.1 μM): growth of estrogen-starved MCF-7 cells; for estrogenic activity on MCF-7 cells (FIG. 1): concentrations up to 5 μM. As to the method:
MCF-7 cells were seeded with medium supplemented with insulin (50 ng/mL) and 5% dextran-coated charcoal treated FBS rather than 10% FBS to remove remaining hormones. Aliquots (100 μL) of the cell suspension were seeded in 96-well plates (3000 cells/well). […] Cells were grown either in the absence or presence of the compounds over a period of 7 days. Quantification of cell growth was determined by using the CellTiter 96®Aqueous Solution Cell Proliferation Assay (Promega, Nepean, ON, Canada) following the manufacturer's instructions. To determine the proliferative (estrogenic) activity, the cells were grown in the absence (control fixed as 100%) or presence of the tested compounds at the indicated concentrations.

The target in the next assay is T1, 17β-HSD1 (Homo sapiens, UniProt P14061).
T1 construct: endogenous in cells; host or cells: T-47D
T1 sequence (P14061 1-328): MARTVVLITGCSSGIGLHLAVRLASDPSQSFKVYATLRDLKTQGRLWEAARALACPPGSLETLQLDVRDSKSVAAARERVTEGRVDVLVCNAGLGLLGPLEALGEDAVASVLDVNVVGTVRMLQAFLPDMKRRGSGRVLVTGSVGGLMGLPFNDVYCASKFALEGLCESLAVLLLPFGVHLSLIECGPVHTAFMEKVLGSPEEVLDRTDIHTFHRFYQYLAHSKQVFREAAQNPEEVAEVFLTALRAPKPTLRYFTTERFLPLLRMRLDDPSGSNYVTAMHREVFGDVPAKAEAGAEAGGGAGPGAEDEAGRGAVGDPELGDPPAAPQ
Briefly: Inhibition of 17β-HSD1 in T-47D intact cells (E1 into E2). The class given is cell-based. As to conditions: T47D; for inhibition at 1 µM: read-out: Inhibition (1 μM); for inhibition at 0.01 µM: read-out: Inhibition % (0.01 μM). How it is done: T-47D cells were seeded in a 24-well plate (3000 cells/well) in medium supplemented with insulin (50 ng/mL) and 5% dextran-coated charcoal treated FBS rather than 10% FBS to remove remaining hormones. […] Each inhibitor was assessed in triplicate. After incubation, the culture medium was removed and labelled steroids (E1 and E2) extracted with 1 mL of diethyl ether. The organic phases were separated and evaporated to dryness using nitrogen. Residues were dissolved in dichloromethane and dropped on silica gel thin layer chromatography plates (EMD Chemicals Inc., Gibbstown, N.J., USA) and eluted with a toluene/acetone (4:1) solvent system. Substrate [^14C]-E1 and metabolite [^14C]-E2 were identified by comparison with reference steroids and quantified using a Storm 860 system (Molecular Dynamics, Sunnyvale, Calif., USA).
T-47D cells were seeded in a 24-well plate (3000 cells/well) in 990 μL of medium supplemented with insulin (50 ng/mL) and 5% dextran-coated charcoal-treated FBS, which was used rather than untreated 10% FBS, to remove the remaining steroid hormones. […] The final concentration of ethanol in the well was adjusted to 0.1%. Additionally, 5 μL of a solution of [^14C]-estrone (American Radiolabeled Chemicals, Inc., St. Louis, Mo., USA) was added to obtain a final concentration of 60 nM. […] After incubation, the culture medium was removed and labeled steroids (E1 and E2) were extracted with 1 mL of diethyl ether. The organic phases were evaporated to dryness with nitrogen. Residues were dissolved in dichloromethane and dropped on silica gel thin layer chromatography plates (EMD Chemicals Inc., Gibbstown, N.J., USA) and eluted with toluene/acetone (4:1) as solvent system. Substrate [^14C]-E1 and metabolite [^14C]-E2 were identified by comparison with reference steroids (E1 and E2) and quantified using the Storm 860 system (Molecular Dynamics, Sunnyvale, Calif., USA).

[3] abbreviates: Table 2 (17β-HSD1), [14C]-E1 60 nM, T-47D intact cells, 0.1 μM, read-out: Inhibition (0.1 μM).
Where [4] appears, read: Table 2 (17β-HSD1), [14C]-E1 60 nM, T-47D intact cells, 1 μM.
Where [5] appears, read: [14C]-E1 (60 nM) into [14C]-E2, T-47D intact cells.
Where [6] appears, read: [14C]-E1 (60 nM) into [14C]-E2, T-47D intact cells, 0.1 μM, read-out: Inhibition % (0.1 μM).

`C[C@]12CC[C@@H]3c4ccc(O)cc4CC[C@H]3[C@@H]1CC[C@H]2O` [17α-E2 (2), 17α-estradiol]: in assay [1], the “increase in uterine weight vs. control group” value (“increase” below) is recorded as 3.6 fold.
Turning to `C[C@@]12CC[C@@H]3c4ccc(O)cc4CC[C@H]3[C@@H]1CC[C@H]2O` [18-epi-17α-E2 (4), (13α,17α)-estra-1(10),2,4-triene-3,17-diol], the “increase” value in assay [1] is on record as 2.6 fold.
As to `C[C@@]12CC[C@@H]3c4ccc(O)cc4CC[C@H]3[C@@H]1CC[C@@H]2O` [18-epi-17β-E2 (3), (13α,17β)-estra-1(10),2,4-triene-3,17-diol], the “increase” value in assay [1] amounted to 1.5 fold. For the same compound, the uterotrophic activity entry in assay [1] (uterus and vagina, OVX mice) is on record as “no significant uterotrophic activity”.
`C[C@]12CC[C@](O)(Cc3ccccc3)C[C@@H]1CC[C@@H]1[C@@H]2CC[C@]2(C)C(=O)CC[C@@H]12` [CS-213, 3β-benzyl-3α-hydroxy-5α-androstan-17-one, reference compound]: the “cell proliferation, % of basal” value in assay [2] (0.1 μM) stood at 225%; in assay [2] (1 μM), 396%.
As for `C[C@]12CC[C@@H]3c4ccc(CC(=O)O)cc4CC[C@H]3[C@@H]1C[C@H](Cc1cccc(C(N)=O)c1)[C@@H]2O` [Compound 31, [(16β,17β)-16-(3-carbamoylbenzyl)-17-hydroxyestra-1(10),2,4-trien-3-yl]acetic acid], the “Estrogenicity (1.0 μM)” value in the assay on MCF-7 cells is “+”. For the same compound, the inhibition (commonly the relative decrease from the control value, in per cent) at 0.1 µM at 17β-HSD1 (setting [3]) was found to be 12%. For the same compound, the inhibition at 1 µM on 17β-HSD1 (setting [4]) is 29%.
`C[C@]12CC[C@@H]3c4ccc(C(=O)O)cc4CC[C@H]3[C@@H]1C[C@H](Cc1cccc(C(N)=O)c1)[C@@H]2O` [Compound 36, (16β,17β)-16-(3-carbamoylbenzyl)-17-hydroxyestra-1,3,5(10)-triene-3-carboxylic acid]: in the assay with MCF-7 cells, the “Estrogenicity (1.0 μM)” value was “++”. Further, at 17β-HSD1 (setting [3]), the inhibition at 0.1 µM worked out at 5%. Besides, the inhibition at 1 µM at 17β-HSD1 (setting [4]) was 8%.
`C[C@]12CC[C@@H]3c4ccc(CN)cc4CC[C@H]3[C@@H]1C[C@H](Cc1cccc(C(N)=O)c1)[C@@H]2O` [Compound 39, 3-{[(16β,17β)-3-(aminomethyl)-17-hydroxyestra-1,3,5(10)-trien-16-yl]methyl}benzamide]: in the assay with MCF-7 cells, the “Estrogenicity (0.1 μM)” value was “++” and the “Estrogenicity (1.0 μM)” value is recorded as “++”. Besides, the inhibition at 0.1 µM on 17β-HSD1 (read-out: Inhibition (0.1 μM)) was found to be 35%. For the same compound, on 17β-HSD1, the inhibition at 1 µM came to 73%.
Regarding `CNC(=O)c1ccc2c(c1)CC[C@@H]1[C@@H]2CC[C@]2(C)[C@@H](O)[C@@H](Cc3cccc(C(N)=O)c3)C[C@@H]12` [Compound 41d, (16β,17β)-16-(3-carbamoylbenzyl)-17-hydroxy-N-methylestra-1,3,5(10)-triene-3-carboxamide], the “Estrogenicity (1.0 μM)” value with MCF-7 cells is reported as “+”. In addition, on 17β-HSD1 (read-out: Inhibition (0.1 μM)), the inhibition at 0.1 µM worked out at 3%. The inhibition at 1 µM on 17β-HSD1 stood at 5%.
As to `C[C@]12CC[C@@H]3c4ccc(B(O)O)cc4CC[C@H]3[C@@H]1C[C@H](Cc1cccc(C(N)=O)c1)[C@@H]2O` [Compound 46, [(16β,17β)-16-(3-carbamoylbenzyl)-17-hydroxyestra-1(10),2,4-trien-3-yl]boronic acid], in the assay on MCF-7 cells, the “Estrogenicity (0.1 μM)” value is recorded as “++” and the “Estrogenicity (1.0 μM)” value is “++”. Further, on 17β-HSD1 (setting [3]), the inhibition at 0.1 µM came out at 39%.
For `C[C@]12CC[C@@H]3c4ccc(N)cc4CC[C@H]3[C@@H]1C[C@H](Cc1cccc(C(N)=O)c1)[C@@H]2O` [Compound 50, 3-{[(16β,17β)-3-amino-17-hydroxyestra-1,3,5(10)-trien-16-yl]methyl}benzamide], the “Estrogenicity (1.0 μM)” value with MCF-7 cells was “+”. The inhibition at 0.1 µM at 17β-HSD1 (read-out: Inhibition (0.1 μM)) came to 35%. For the same compound, the inhibition at 1 µM at 17β-HSD1 was determined as 43%.
Taken in the same sequence, the figures for `C[C@]12CC[C@@H]3c4ccc(F)cc4CC[C@H]3[C@@H]1C[C@H](Cc1cccc(C(N)=O)c1)[C@@H]2O` [Compound 57, 3-{[(16β,17β)-3-fluoro-17-hydroxyestra-1(10),2,4-trien-16-yl]methyl}benzamide] were “+”, 48% and 50%.
With `C[C@]12CC[C@@H]3c4ccc(C(N)=O)cc4CC[C@H]3[C@@H]1C[C@H](Cc1cccc(C(N)=O)c1)[C@@H]2O` [Compound 61, (16β,17β)-16-(3-carbamoylbenzyl)-17-hydroxyestra-1,3,5(10)-triene-3-carboxamide], the “Estrogenicity (1.0 μM)” value with MCF-7 cells was “++”. Also, the inhibition at 0.1 µM on 17β-HSD1 (setting [3]) was determined as 3%. The inhibition at 1 µM on 17β-HSD1 (setting [4]) worked out at 23%.
In the case of `C[C@]12CC[C@@H]3c4ccc(CO)cc4CC[C@H]3[C@@H]1C[C@H](Cc1cccc(C(N)=O)c1)[C@@H]2O` [II, 3-{[(16β,17β)-17-hydroxy-3-(hydroxymethyl)estra-1,3,5(10)-trien-16-yl]methyl}benzamide], in the assay on MCF-7 cells, the “estrogenic activity on MCF-7 cells (FIG. 1)” value is “significant estrogenic activity” and the “Estrogenicity (1.0 μM)” value is listed as “+”. Besides, at 17β-HSD1 (setting [3]), the inhibition at 0.1 µM was 56%. In addition, the inhibition at 1 µM at 17β-HSD1 (setting [4]) was found to be 73%. In addition, the inhibition at 0.01 µM at 17β-HSD1 (setting [5]) worked out at 14%. Further, the inhibition at 0.1 µM at 17β-HSD1 (setting [6]) was 37%.
For `C[C@]12CC[C@@H]3c4ccc(CCO)cc4CC[C@H]3[C@@H]1CC(Cc1cccc(C(N)=O)c1)[C@@H]2O` (stereo partly drawn) [IV, 3-{[(17β)-17-hydroxy-3-(2-hydroxyethyl)estra-1(10),2,4-trien-16-yl]methyl}benzamide], in the assay with MCF-7 cells, the “estrogenic activity on MCF-7 cells (FIG. 1)” value is “completely removed any estrogenic activity”, the “Estrogenicity (0.1 μM)” value is “+” and the “Estrogenicity (1.0 μM)” value is listed as “++”. Moreover, the inhibition at 0.1 µM at 17β-HSD1 (setting [3]) was determined as 19%. For the same compound, the inhibition at 1 µM at 17β-HSD1 (setting [4]) was 57%. In addition, the inhibition at 0.01 µM on 17β-HSD1 (setting [5]) is 7%. For the same compound, the inhibition at 0.1 µM at 17β-HSD1 (setting [6]) is 17%.
